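Interpolation was linear, between the two tested concentrations surrounding the appropriate level; five concentrations were tested over 48 hours in 96-well plates. Here, GI50 denotes the concentration required for 50% inhibition of growth.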 The source made the active and inactive calls. Rule as the data show it: active = GI50 up to about 1.1 µM and inactive = higher.
How the values were obtained:
Assay in all cases: NCI-60 cell line screen, 48 h
UO-31 = tested on: UO-31
A498 = tested on: A498
HCT-15 = tested on: HCT-15
MOLT-4 = tested on: MOLT-4
SK-MEL-2 = tested on: SK-MEL-2
NCI-H522 = tested on: NCI-H522
U-251 = tested on: U-251
RPMI-8226 = tested on: RPMI-8226
MCF7 = tested on: MCF7
TK-10 = tested on: TK-10
HT-29 = tested on: HT-29
SK-MEL-28 = tested on: SK-MEL-28
HL-60 = tested on: HL-60
SF-295 = tested on: SF-295
UACC-257 = tested on: UACC-257
SW-620 = tested on: SW-620
CCRF-CEM = tested on: CCRF-CEM
SN12C = tested on: SN12C
HCT-116 = tested on: HCT-116
CAKI-1 = tested on: CAKI-1
LOX IMVI = tested on: LOX IMVI
NCI-H23 = tested on: NCI-H23
NCI/ADR-RES = tested on: NCI/ADR-RES
SR = tested on: SR
OVCAR-4 = tested on: OVCAR-4
ACHN = tested on: ACHN
K562 = tested on: K562
SF-539 = tested on: SF-539
IGROV-1 = tested on: IGROV-1
MDA-N = tested on: MDA-N
OVCAR-3 = tested on: OVCAR-3
786-0 = tested on: 786-0
DU-145 = tested on: DU-145
HOP-62 = tested on: HOP-62
EKVX = tested on: EKVX
SNB-19 = tested on: SNB-19
A549 = tested on: A549
SF-268 = tested on: SF-268
OVCAR-8 = tested on: OVCAR-8
UACC-62 = tested on: UACC-62
COLO 205 = tested on: COLO 205
HOP-92 = tested on: HOP-92
PC-3 = tested on: PC-3
OVCAR-5 = tested on: OVCAR-5
BT-549 = tested on: BT-549
MDA-MB-435 = tested on: MDA-MB-435
HCC 2998 = tested on: HCC 2998
M14 = tested on: M14
KM12 = tested on: KM12
SK-MEL-5 = tested on: SK-MEL-5
T47D = tested on: T47D
SK-OV-3 = tested on: SK-OV-3
NCI-H226 = tested on: NCI-H226
MDA-MB-231 = tested on: MDA-MB-231
RXF 393 = tested on: RXF 393
Hs-578T = tested on: Hs-578T
Malme-3M = tested on: Malme-3M
NCI-H460 = tested on: NCI-H460
SNB-75 = tested on: SNB-75

Measured: GI50

CC1(C)O[C@H]2[C@@H]3N=C(c4ccccc4)O[C@@H]3C=C[C@H]2O1
> 100 µM: HCT-15
inactive: UO-31 > 100 µM | A498 > 100 µM | MOLT-4 > 100 µM | SK-MEL-2 > 100 µM | NCI-H522 4.01 µM | U-251 > 100 µM | RPMI-8226 > 100 µM | MCF7 > 100 µM | TK-10 > 100 µM | HT-29 > 100 µM | SK-MEL-28 > 100 µM | HL-60 > 100 µM | SF-295 > 100 µM | UACC-257 > 100 µM | SW-620 > 100 µM | CCRF-CEM > 100 µM | SN12C > 100 µM | HCT-116 > 100 µM | CAKI-1 > 100 µM | LOX IMVI > 100 µM | NCI-H23 > 100 µM | NCI/ADR-RES > 100 µM | SR > 100 µM | OVCAR-4 > 100 µM | ACHN > 100 µM | K562 > 100 µM | SF-539 > 100 µM | IGROV-1 > 100 µM | MDA-N > 100 µM | OVCAR-3 > 100 µM | 786-0 > 100 µM | DU-145 > 100 µM | HOP-62 > 100 µM | EKVX 59.7 µM | SNB-19 > 100 µM | A549 > 100 µM | SF-268 17.6 µM | OVCAR-8 > 100 µM | UACC-62 > 100 µM | COLO 205 > 100 µM | HOP-92 83.2 µM | PC-3 > 100 µM | OVCAR-5 > 100 µM | BT-549 > 100 µM | MDA-MB-435 > 100 µM | HCC 2998 > 100 µM | M14 > 100 µM | KM12 > 100 µM | SK-MEL-5 > 100 µM | T47D > 100 µM | SK-OV-3 > 100 µM | NCI-H226 > 100 µM | MDA-MB-231 > 100 µM

O=[N+]([O-])c1ccc2c(/N=N/c3ccc4ccccc4c3O)c(O)cc(S(=O)(=O)O)c2c1
9.93 µM: HCT-15
inactive: UO-31 5.78 µM | A498 35.3 µM | MOLT-4 3.98 µM | SK-MEL-2 23 µM | NCI-H522 7.71 µM | RXF 393 17.9 µM | U-251 7.41 µM | RPMI-8226 17.8 µM | MCF7 30.3 µM | TK-10 > 65.3 µM | HT-29 44.5 µM | SK-MEL-28 12 µM | HL-60 9.06 µM | SF-295 32 µM | UACC-257 31.3 µM | Hs-578T 41 µM | Malme-3M 18.3 µM | SW-620 18.7 µM | CCRF-CEM 8.77 µM | SN12C 38.5 µM | HCT-116 19.5 µM | CAKI-1 12.6 µM | LOX IMVI 6.65 µM | NCI-H23 31.3 µM | NCI/ADR-RES 11.1 µM | SR > 29.3 µM | OVCAR-4 9.64 µM | ACHN 7.13 µM | K562 20.6 µM | SF-539 11.4 µM | IGROV-1 8.65 µM | OVCAR-3 4.89 µM | NCI-H460 38.5 µM | 786-0 18.7 µM | DU-145 18.7 µM | HOP-62 24.9 µM | EKVX 14.7 µM | SNB-19 13.2 µM | SNB-75 26.7 µM | A549 40.6 µM | SF-268 8.89 µM | OVCAR-8 7.41 µM | UACC-62 7.21 µM | COLO 205 27.7 µM | HOP-92 21.6 µM | PC-3 18.2 µM | OVCAR-5 15.1 µM | BT-549 25.7 µM | MDA-MB-435 16.7 µM | HCC 2998 39.5 µM | M14 6.76 µM | KM12 31.8 µM | SK-MEL-5 15.8 µM | T47D 20.4 µM | SK-OV-3 18.7 µM | NCI-H226 4.66 µM | MDA-MB-231 35 µM

From ChEMBL document CHEMBL1201862, “PubChem BioAssay data set” (2004)
